What was measured:
[1] = In vitro non-radioactive metabolite analysis and clearance in HLM; type: in vitro ADME, human
Description: (§1) Microsomal incubations were performed using a Hamilton Microlab Star liquid handling workstation (Hamilton Robotics, Bonaduz, Switzerland). Test compound 2 (final concentration 1 or 10 μM, 1% DMSO) was pre-incubated at 37 °C for 10 min in MLM or HLM (final concentration 1 mg/ml prepared in 10 mM PBS). Reactions were initiated by the addition of NADPH (final concentration 1 mM). Aliquots were removed from each incubation and quenched in 3 volumes of ice-cold MeOH containing internal standard olomoucine (500 nM in MeOH) at − 1, 0, 5, 15, 30 and 60 min. Incubations were conducted in singlicate. […] Terminated incubations were centrifuged at 3700 rpm at 4 °C for 30 min and supernatant taken for analysis. Microsomal incubations were analysed by liquid chromatography-tandem mass spectrometry (LC-MS/MS). This consisted of a Dionex Ultimate 3000 UHPLC system coupled to a ThermoScientific Q Exactive Plus orbitrap mass spectrometer (Thermo Fisher Scientific Inc., Waltham, USA). Chromatographic separation was achieved using an Acquity UPLC HSS T3 column (1.8 μm, 100 × 2.1 mm) (Waters, Elstree, UK) at 50 °C and a binary mobile phase gradient at a flow rate of 0.4 ml/min. Initial LC conditions comprised 10% formic acid (0.1%) in water (A), 90% methanol (B). This was ramped to […] at 12 min. Sample analysis was by positive ion electrospray ionization. The capillary voltage was 3.5 kV. Full MS/dd-MS^2 (full MS scan followed by data dependent MS/MS) and Full MS/AIF (full MS scan followed by all ion fragmentation) workflows were used in combination. Full MS was performed at a resolution of 70,000, AGC target 1 e^6; dd-MS2 at a resolution of 17,5000, AGC target 1 e^5. LC-MS response (peak area of the analyte/peak area of internal standard) was fitted to a nonlinear single exponential model using software GraphPad Prism software (v6.07, GraphPad Software, Inc., La Jolla, USA). Elimination rate constant (k) was determined and intrinsic clearance, CLint, was calculated as CLint = (V.k)/mg protein where V is the incubation volume (μl) and mg protein is the mg microsomal protein in the incubation. Identification of metabolites in microsomal incubations and elucidation of their structures was undertaken with Compound Discoverer software (v2.0.0.303, Thermo Fisher Scientific Inc., Waltham, USA).

[2] = In vitro non-radioactive metabolite analysis and clearance in MLM; type: in vitro ADME, mouse
Description: as §1

## CC1(C)OC(=S)Nc2ccc(-c3cccnc3F)cc21 [Compound 2, 6-(2-fluoropyridin-3-yl)-4,4-dimethyl-1H-benzo[d][1,3]oxazine-2(4H)-thione]
[1]; HLM incubation, LC-MS/MS
  Metabolite identification by mass spectrometry in HLM: conversion of the thiocarbamate into oxocarbamate as the major metabolic pathway and highlighted oxidative defluorination
[1]; HLM versus MLM
  Clearance, fold slower in HLM than in MLM: ca. 22 fold
[1]; human, human liver microsomes, HLM 1 mg/ml, NADPH 1 mM, 37 °C
  microsomal CLint: 56 µL/min/mg
[2]; MLM incubation, LC-MS/MS
  Metabolite identification by mass spectrometry in MLM: conversion of the thiocarbamate into oxocarbamate as the major metabolic pathway and highlighted oxidative defluorination
[2]; mouse, mouse liver microsomes, MLM 1 mg/ml, NADPH 1 mM, 37 °C
  microsomal CLint: 1270 µL/min/mg
